Experimental data reported in patent US20250382588A1, “CHIMERIC AAV AND USES THEREOF” (priority 2023, published 2025).

Target: T1, rM3Ds (Rattus norvegicus, UniProt P08483, A177S/A238G/A489L/DEL261-437/DEL441-478/E258S/I253V/I483M/INS256[…]/K178L/K182A/K255R/K484R/K486H/L173F/L482A/M480V/R171S/R176Q/R179M/S481M/T174R/T181R/T257A/Y148C)
T1 sequence (P08483 with tags, fused parts or gaps Y148C/R171S/L173F/T174R/R176Q/A177S/K178L/R179M/T181R/K182A/A238G/I253V/K255R/INS256[…]/T257A/E258S/DEL261-437/DEL441-478/M480V/S481M/L482A/I483M/K484R/K486H/A489L): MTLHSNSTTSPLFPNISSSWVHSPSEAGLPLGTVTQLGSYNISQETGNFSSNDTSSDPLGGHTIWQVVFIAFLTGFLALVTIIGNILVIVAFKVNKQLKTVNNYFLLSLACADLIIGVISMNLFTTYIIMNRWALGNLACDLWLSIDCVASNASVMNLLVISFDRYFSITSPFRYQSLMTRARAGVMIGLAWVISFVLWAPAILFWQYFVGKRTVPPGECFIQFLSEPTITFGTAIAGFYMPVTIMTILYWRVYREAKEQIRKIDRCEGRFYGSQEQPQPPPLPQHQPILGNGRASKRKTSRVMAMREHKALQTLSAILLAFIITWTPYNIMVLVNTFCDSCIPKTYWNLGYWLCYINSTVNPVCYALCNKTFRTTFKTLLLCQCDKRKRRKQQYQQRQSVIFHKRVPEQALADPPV
Test: Electrophysiological recording in caudate/putamen after intramuscular CNO, rM3Ds macaques
Assay type: in vivo
Protocol: Electrophysiological recording was performed through a recording chamber while the monkey was anesthetized. Neural responses were recorded by a 16-channel linear probe (Plexon Inc, Uprobe) driven by a mechanical microdrive (Alpha Omega, FlexMT). Signals were passed through a head stage (Plexon Inc, HST/16V-G20 LN) and then split and filtered between 300 Hz and 5 kHz to identify spiking activity with an amplifier system (Plexon Inc, OmniPlex). Detected spikes were then sorted by commercially available software (Plexon Inc, Offline Sorter) for further analysis. To quantify the effect of CNO/DCZ injection, neural activity was recorded for 60 minutes following CNO/DCZ injection. The response time-course for each channel was obtained by counting the spikes within every 10-minute window and then normalizing to the maximal.
To determine the effect of CNO/DCZ injection on the direction of signal change, we performed Pearson correlation between neural responses and time using the ‘corr’ function in Matlab, which generates the correlation coefficient ‘r’ and significant level ‘p’. A neuron was considered to have “Increased” activity when r>0 and p<[…]; and considered to have “Decreased” activity when r<0 and p<0.05. Otherwise, neurons were considered to be “Unchanged” in their neural activities. The responses of all increased neurons were then averaged after being normalized by the maximal response (Crowe et al., 2014; Dai and Wang, 2018; Hirokawa et al., 2019) following CNO/DCZ injection, and then plotted as a function of time to generate the normalized population response. […]

[1] = 38 total cells in the caudate/putamen
[2] = monkey CM048, 38 cells in caudate

C[N+]1([O-])CCN(C2=Nc3cc(Cl)ccc3Nc3ccccc32)CC1 [CNO, clozapine N-oxide]
cells activated (FIG. 12N) [1]: 50% | cells inactivated (FIG. 12N) [1]: 13.2% | cells unchanged (FIG. 12N) [1]: 36.8% | neuronal activity in retrogradely labeled D1-MSNs (opto-tagging) (anesthetized macaques, AAV8R12-G88P7-HA-rM3Ds-2A-Cre): effectively induced an increase of neuronal activity | cells activated (FIG. 12F) [2]: 65.8% | cells inactivated (FIG. 12F) [2]: 7.9% | cells unchanged (FIG. 12F) [2]: 26.3%
